The values that follow come from patent US20060008491A1, “Eremophilone and eremophilone derivatives for pest control” (priority 2002, published 2006).

This experiment relates to Coptotermes acinaciformis. The experiment is classed as in vivo. The conditions noted are these: HPLC fractions of steam distilled oil.

Method: A number of samples were assessed for termiticidal activity. The steam distilled oil product was separated into thirty fractions using reverse phase preparative HPLC, methanol:water (80:20). Fractions were re-analysed by GC-MS and recombined to provide eight fractions. Three fractions contained pure components, the other fractions contained mixtures of minor components of the oil. Six fractions together with the whole oil distillate, and the methanol and hexane extracts were tested on the workers of the termites Nasutitermes walkeri and Coptotermes acinaciformis as follows.
Twenty uniform termite workers were transferred to 90 mm diam. petri dishes lined with the same diameter moistened filter paper (Whatman No 2). […]
A 5 ml aliquot was applied to each petri dish with a Potter precision spray tower as described by Herron et al (995). The average weight of the solution sprayed on each dish was calculated to be 3.95 mg/cm^2. […] Mortality was normally recorded 24 h after treatment. […] Probit analysis was carried out for dose-mortality data and heterogeneity of regressions was determined by the Pearson chi-squared characteristic.

Turning to `C=C(C)[C@@H]1CC(=O)C2=CCC[C@H](C)[C@@]2(C)C1` [EM-1, Eremophilone], the “termiticidal activity” value is reported as “significant termiticidal activity”.
